Data as given in patent US20110118298A1, “COMPOSITIONS, KITS, AND METHODS FOR IDENTIFICATION, ASSESSMENT, PREVENTION, AND THERAPY OF CANCER” (INFINITY PHARMACEUTICALS, INC., priority 2009, published 2011).
Entries after “also recorded” stand apart in the source; their conditions may differ. Counter-ions that a name gives are not always drawn.

Tests used:
[1] = tested on: Colo201 (mutant BRAF) xenograft; assay: Colo201 xenograft, 17-AG, Irinotecan and combination; type: in vivo, nude mice
Protocol: In the sixth set of studies, subcutaneous xenografts of Colo201 (mutant BRAF) were established by implantation of 10×10^6 cells into the right flank of nude mice. Once tumors reached approximately 100-150 mm^3, animals were randomized into treatment groups and administered either vehicle or a suspension of 50% 17-AG in HPMC-AS-HG dispersion in vehicle (1% hydroxyethylcellulose, 5% glycerol) (100 mg/kg, M-W-F, 3 weeks), Irinotecan (100 mg/kg, Q7D, 3 weeks) or the combination of a suspension of 50% 17-AG in HPMC-AS-HG dispersion in vehicle (1% hydroxyethylcellulose, 5% glycerol) (50 mg/kg, M-W-F) and Irinotecan (75 mg/kg, Q7D) for three weeks, and tumor volume measured twice per week (FIG. 26A; FIG. 26B is a zoomed-in section of FIG. 26A). At the end of the dosing period, animals were monitored for an additional 57 days to follow tumor growth delay. […] Similar results to those described above for the Colo201 model were also observed in two separate colorectal models (HCT-116 and DuDu1, […]) (Experiments 7 and 8).

[2] = tested on: EGFR mutant tumors with T790M resistant clones; assay: In vivo model of emerging EGFR TKI resistance (T790M)
[3] = tested on: MAPK pathway (p-bRAF, p-MEK), cleaved caspase 3 in Colo205, Colo201 xenografts; assay: Pharmacodynamic analysis after a single dose, mutant xenografts; type: in vivo; details: 100 mg/kg
Protocol: To further investigate a potential correlation between the effect of IPI-493 on molecular components of the RAS-RAF-ERK pathway and efficacy, pharmacodynamic analysis was performed on mutant bRAF (Colo205, Colo201) and wild-type (Colo320HSR) xenograft models after a single 100 mpk dose. […] Moreover, when p-MEK activity was assessed for all the CRC xengrafts, there was a clear delineation of sensitivity between mutant and wild type models, further supporting the hypothesis that MAPK pathway activity can be a surrogate for IPI-493 efficacy. […] Altogether, these provide rationale for a clinical path in this disease.

[4] = tested on: tumors of smoker patients; assay: Clinical trial, response to IPI-504 by smoking status; type: in vivo, human
Source text: This example describes the results from a clinical trial that assessed the efficacy of IPI-504, alone or in combination with docetaxel, in smoker patients.
FIG. 27 depicts a waterfall plot showing responses to IPI-504 according to smoking status. The y-axis of FIG. 27 represents % of tumor volume change from baseline. Each bar represents one patient.

[5] = tested on: mutant EGFR; assay: Time to client protein degradation by immunoblot, H1650 cells; type: cell-based, human; details: 1 uM IPI-504
Protocol: (§1) FIG. 7B is panel of immunoblot images showing the levels of ALK, phospho-ALK and cleaved-PARP in H3122 cells, HER2 in BT474 cells, and EGFR in H1650 cells at various time points after IPI-504 (1 uM) treatment. Proteins levels were monitored by immunoblotting.
(§2) Rearrangements at the ALK locus have been reported in about 5% of NSCLC patients, forming an oncogenic fusion of the N-terminus of EML4 with the C-terminal kinase domain of ALK (Soda, M. et al. (2007) Nature 448: 561-6). To determine whether the EML4-ALK fusion protein is a client protein of Hsp90, we incubated the EML4-ALK-expressing NSCLC cell line H3122 with increasing concentrations of IPI-504 and measured the abundance of total and phosphorylated ALK protein by ELISA (FIG. 7a). In this experiment, virtually all ALK protein is degraded at concentrations above 50 nM IPI-504. The degradation IC50 measured (4 nM) makes this the most sensitive Hsp90 client protein we have encountered. […] To further confirm that EML4-ALK is indeed a client of Hsp90, we performed immunoprecipitations with an antibody directed against Hsp90a, and detected a protein band at the predicted molecular weight ([…]) with an ALK antibody in Hsp90 immunoprecipitates from H3122 cells but not control cells (FIG. 7c, lane 1 and 3). […]

[6] = tested on: BON-1 xenograft; assay: BON-1 xenograft; type: in vivo, NCr nude athymic mice; details: IPI-504 15 mg/kg i.p. twice per week, end of study
Protocol: Xenographs were generated by injecting 5×10^6 BON-1 cells into the flanks of […]. IPI-504 (also referred to herein as IPI-504) (15 mg/kg) or vehicle were administered i.p. twice per week (n=10 per arm), and tumor xenograft size was monitored twice weekly with calipers. Results are presented as means and SEM.

[7] = tested on: EML4-ALK; assay: Time to client protein degradation by immunoblot, H3122 cells; type: cell-based, human; details: 1 uM IPI-504
Protocol: as §1, §2

CO[C@H]1/C=C\C=C(/C)C(=O)NC2=CC(=O)C(N)=C(C[C@@H](C)C[C@H](OC)[C@H](O)[C@@H](C)/C=C(\C)[C@@H]1OC(N)=O)C2=O [IPI-493, 17-AG]
complete responses (complete disappearance of a palpable tumor) ([1]; combination 50 + 75 mg/kg, single agents 100 mg/kg each): no complete responses
TGI while on drug ([1]; single agent, 17-AG 100 mg/kg M-W-F or Irinotecan 100 mg/kg Q7D, 3 weeks): ~88%
tumor growth inhibition ([2]; compared with gefitinib treatment alone): 61%
animals still on study ([2]; day 45): ~40%
phosphorylated bRAF and MEK (p-bRAF, p-MEK) ([3]; single 100 mpk dose of IPI-493, ~24 hr post dose): downregulation of the activity of both bRAF and MEK; also recorded: time dependent decrease in phosphorylated BRAF; also recorded: time dependent decrease in phosphorylated MEK
cleaved caspase 3 ([3]; single 100 mpk dose of IPI-493): time dependent increase in cleaved caspase 3 activity

C=CCNc1c(O)cc2c(O)c1C[C@@H](C)C[C@H](OC)[C@H](O)[C@@H](C)/C=C(\C)[C@H](OC(N)=O)[C@@H](OC)/C=C\C=C(/C)C(=O)N2 [IPI-504, retaspimycin hydrochloride]
patients showing a partial response (PR) ([4]; out of 21 smoker patients): 6 patients
objective response rate (ORR) ([4]; smoker patients): 29%
time for most of the mutEGFR to be degraded [5]: about 24 h
reduction in tumor size compared with vehicle [6]: 58%
time to complete degradation of EML4-ALK [7]: ≤ 3 h
